Counter-ions that a name gives are not always drawn. Like-named read-outs stand apart in the source and are kept apart here.
Key:
[1] = molecular target: T1, PDE7A1 (Homo sapiens, UniProt Q13946); experiment: Determination of PDE7 inhibition (SPA, [3H]cAMP); format: biochemical; conditions: for inhibition at 10 µM: read-out: % inhibition of PDE7A at 10 μM, hydrobromides; for IC50: read-out: IC50 (PDE7A)
T1 construct: purchased Calbiochem 524751
Method: PDE-7 inhibition was performed with a commercial kit for the determination of phosphodiesterase activity (GE Healthcare Life Sciences, cat#TRKQ7090).
The compounds to be evaluated were incubated (in concentrations between 0.1 nM and 100 μM) in presence of 0.02 U/well of PDE7A1 (Calbiochem cat#524751) and 0.05 μCi of [^3H] cAMP, for 20 min at 30° C. in the assay buffer of kit (total volume=100 μl).
After this time, 50 μl of a suspension of 20 mg/ml microspheres of SPA of Ytrium silicate were added and was maintained under stirring at room temperature for 60 min. Finally, the plate was settled for 20 min and radioactivity was detected in a Microbeta Trilux reader.
In every assay there were included two points without PDE7A1 (blank) and two points with PDE7A1 without inhibitors (control).
Data Analysis: All the compounds were evaluated firstly at the concentration of 10 μM and the percentage of PDE7A1 inhibition was calculated, according to the following formula (cpm=counts per minute): % Inhibition=((cpm control−cpm sample)×100)/(cpm control−cpm blank assay).
For those compounds with % inhibition values above 45% it was calculated its inhibitory potency (IC50) building the dose-response curve.
The data were adjusted with the software Prism v 2.1 (GraphPad Software) using the non lineal fitting.

[2] = PAMPA-BBB parallel artificial membrane permeability assay (porcine polar brain lipid)
Method: Ten commercial reference drugs, phosphate buffer saline solution at pH 7.4 (PBS), DMSO and dodecane were purchased from Sigma, Acros organics, Aldrich and Fluka. […] Filter PDVF membrane units (diameter 30 mm, pore size 0.45 μm) from Symta were used to filtered the samples. A 96-well plate UV reader (Thermoscientific, Multiskan spectrum) was used for the UV measurements. […] These solutions were filtered. The acceptor 96-well microplate was filled with 180 μL of PBS:DMSO (95:5). The donor 96-well plate was coated with 4 μL of porcine brain lipid in dodecane (20 mg mL^−1) and after 5 minutes, 180 μL of each compound solution was added. 1-2 mg of every compound to be determined their ability to pass the BBB were dissolved in 250 μL of DMSO and 4750 μL of PBS pH 7.4 buffer, filtered and then added to the donor 96-well plate. Then the donor plate was carefully put on the acceptor plate to form a “sandwich”, which was left undisturbed for 4 h at 25° C.
During this time the compounds diffused from the donor plate through the brain lipid membrane into the acceptor plate. After incubation, the donor plate was removed. The concentration of compounds and commercial drugs in the acceptor and the donor wells was determined by UV plate reader. Every sample was analyzed from three to five wavelengths, in 3 wells and in at least three independent runs. […] 11 quality control compounds (previously mentioned) of known BBB permeability were included in each experiment to validate the analysis set.

[3] = 1,2,4-thiadiazoles-5-imino substituted as hydrobromides
[4] = 1,2,4-thiadiazoles-5-imino substituted as hydrochlorides

T1 sequence (Q13946 whole entry): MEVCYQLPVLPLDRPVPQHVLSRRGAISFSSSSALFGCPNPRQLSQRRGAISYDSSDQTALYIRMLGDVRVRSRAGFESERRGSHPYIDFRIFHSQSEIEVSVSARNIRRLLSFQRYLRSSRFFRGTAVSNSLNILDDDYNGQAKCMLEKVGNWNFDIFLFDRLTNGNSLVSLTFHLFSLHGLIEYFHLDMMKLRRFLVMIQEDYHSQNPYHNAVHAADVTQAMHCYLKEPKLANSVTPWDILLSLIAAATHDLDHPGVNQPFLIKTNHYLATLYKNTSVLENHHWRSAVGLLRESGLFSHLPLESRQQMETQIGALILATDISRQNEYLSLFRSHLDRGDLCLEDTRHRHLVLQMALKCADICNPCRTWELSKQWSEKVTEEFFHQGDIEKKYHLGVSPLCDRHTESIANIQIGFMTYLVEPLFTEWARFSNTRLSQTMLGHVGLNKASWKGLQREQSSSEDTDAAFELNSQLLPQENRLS

| Structure (SMILES) | IC50 [1, 3] [nM] | Papp at 4 h ([2]; PAMPA, pH 7.4) [×10⁻⁶ cm/s] | Prediction (predictive penetration in the CNS) ([2]; PAMPA) | further results |
| --- | --- | --- | --- | --- |
| FC(F)(F)c1ccc(-c2nc(=NCc3cccnc3)sn2-c2ccccc2)cc1 [3-(4-Trifluoromethylphenyl)-2-phenyl-5-(3-pyridylmethylimino)-2,5-dihydro-1,2,4-thiadiazole dihydrobromide] | – | – | – | inhibition at 10 µM ([1]; at 10 μM): 87% |
| Br.OCCN=c1nc(-c2cccc3ccccc23)n(-c2ccccc2)s1 [VP-2.33, 5-(2-Hydroxyethylimino)-3-(1-naphthyl)-2-phenyl-2,5-dihydro-1,2,4-thiadiazole hydrobromide] | 1240 | 10.2 ± 0.6 | – | Prediction (predictive penetration in the CNS) ([2]; PAMPA-BBB): CNS+ |
| CN(C)CCCN1c2ccccc2Sc2ccccc21 [Promazine, reference compound] | – | 9.7 ± 1.5 | – | – |
| Br.Br.Cc1nc(=NCc2cccnc2)sn1-c1ccccc1 [VP-2.63, 3-Methyl-2-phenyl-5-(3-pyridylmethylimino)-2,5-dihydro-1,2,4-thiadiazole dihydrobromide] | – | 5.3 ± 0.9 | CNS+ | inhibition at 10 µM ([1]; at 10 μM): 54% |
| c1ccc(-c2nc(=NCc3cccnc3)sn2-c2cccc3ccccc23)cc1 [2-(1-Naphthyl)-3-phenyl-5-(3-pyridylmethylimino)-2,5-dihydro-1,2,4-thiadiazole dihydrobromide] | 870 | – | – | – |
| N=c1nc(-c2ccccc2)n(-c2ccccc2)s1 [R1=Ph, R2=Ph, R3=H (hydrobromide)] | 1020 | – | – | – |
| c1ccc(N=c2nc(-c3ccccc3)n(-c3ccccc3)s2)cc1 [R1=Ph, R2=Ph, R3=Ph (hydrobromide), 2,3-Diphenyl-5-phenylimino-2,5-dihydro-1,2,4-thiadiazole hydrobromide] | 3030 | – | – | – |
| CCn1cc(C(=O)O)c(=O)c2cc(F)c(N3CCNCC3)nc21 [Enoxacin, reference compound] | – | – | – | Pe (10^−6 cm s^−1) ([2]; pig, PAMPA, 4 h, pH 7.4): 0.9 ± 0.5 10^−6 cm s^−1 |
| c1ccc(-n2sc(=NCc3cccnc3)nc2-c2cccc3ccccc23)cc1 [3-(1-Naphthyl)-2-phenyl-5-(3-pyridylmethylimino)-2,5-dihydro-1,2,4-thiadiazole dihydrobromide] | 1080 | – | – | – |
| c1ccc(-c2nc(=NC3CCCCC3)sn2-c2ccccc2)cc1 [R1=Ph, R2=Ph, R3=Cy (hydrobromide)] | 1640 | – | – | – |
| CN1C(C(=O)Nc2ccccn2)=C(O)c2ccccc2S1(=O)=O [Piroxicam, reference compound] | – | – | – | Pe (10^−6 cm s^−1) ([2]; PBS:DMSO (95:5) as solvent, 4 h at 25° C., mean ± SD of at least 3 independent experiments): 2.2 ± 0.9 10^−6 cm s^−1 |
| CC(C)NCC(O)COc1ccc(CC(N)=O)cc1 (stereo not drawn) [Atenolol, reference compound] | – | – | – | Pe (10^−6 cm s^−1) ([2]; pig, PAMPA, 4 h, pH 7.4): 0.8 ± 1.1 10^−6 cm s^−1 |
| O=[N+]([O-])c1ccc(-n2sc(=NCc3cccnc3)nc2-c2ccccc2)cc1 [2-(4-Nitrophenyl)-3-phenyl-5-(3-pyridinylmethylimino)-2,5-dihydro-1,2,4-thiadiazole dihydrobromide] | 840 | – | – | – |
| c1ccc(-n2sc(=NCc3cccnc3)nc2-c2cccc3ccccc23)cc1 [3-(1-Naphthyl)-2-phenyl-5-(3-pyridylmethylimino)-2,5-dihydro-1,2,4-thiadiazole hydrochloride] | – | – | – | IC50 [1, 4]: 1500 nM |
| CCOC(=O)CN=c1nc(-c2ccccc2)n(-c2ccccc2)s1 [R1=Ph, R2=Ph, R3=CH2CO2Et (free base), 5-Ethoxycarboximethylimino-2,3-diphenyl-2,5-dihydro-1,2,4-thiadiazole] | – | – | – | % inhibition of PDE7A at 10 μM ([1]; free bases, at 10 μM): 6%@10 |
| c1ccc(N=c2nc(-c3ccccc3)n(-c3ccccc3)s2)cc1 [R1=Ph, R2=Ph, R3=Ph (free base), 2,3-Diphenyl-5-phenylimino-2,5-dihydro-1,2,4-thiadiazole] | – | – | – | IC50 ([1]; 1,2,4-thiadiazoles-5-imino substituted as free bases): 3520 nM |
| CCCCCN=c1nc(-c2ccc(OC)cc2)n(-c2ccccc2)s1 [3-(4-Methoxyphenyl)-5-pentylimino-2-phenyl-2,5-dihydro-1,2,4-thiadiazole hydrochloride] | – | – | – | IC50 [1, 4]: 3700 nM |

Continued, in another order:

| IC50 [1, 3] [nM] | Papp at 4 h ([2]; PAMPA, pH 7.4) [×10⁻⁶ cm/s] | Prediction (predictive penetration in the CNS) ([2]; PAMPA) | Structure (SMILES) | further results |
| --- | --- | --- | --- | --- |
| 2200 | – | – | OCCN=c1nc(-c2ccccc2)n(-c2cccc3ccccc23)s1 [5-(2-Hydroxyethylimino)-2-(1-naphthyl)-3-phenyl-2,5-dihydro-1,2,4-thiadiazole hydrobromide] | – |
| – | 15 ± 2 | CNS+ | OCCN=c1nc(-c2ccccc2)n(-c2ccccc2)s1 [VP-2.3, 5-(2-Hydroxyethylimino)-2,3-diphenyl-2,5-dihidro-1,2,4-thiadiazole hydrochloride] | IC50 [1, 4]: 1970 nM |
| 850 | 6.2 ± 0.4 | CNS+ | Br.Br.COc1ccc(-n2sc(=NCc3cccnc3)nc2-c2ccccc2)cc1 [VP-1.60, 2-(4-Methoxyphenyl)-3-phenyl-5-(3-pyridinylmethylimino)-2,5-dihydro-1,2,4-thiadiazole dihydrobromide] | – |
| 1130 | 6.2 ± 0.4 | CNS+ | Br.CCOC(=O)CN=c1nc(-c2ccccc2)n(-c2ccccc2)s1 [VP-1.16, 5-Ethoxycarbonylmethylimino-2,3-diphenyl-2,5-dihydro-1,2,4-thiadiazole hydrobromide] | – |
| 4360 | – | – | COc1ccc(-c2nc(=Nc3ccccc3)sn2-c2ccccc2)cc1 [R1=pOMePh, R2=Ph, R3=Ph (hydrobromide)] | – |
| 780 | 4 ± 0.8 | CNS+/CNS− | Br.CCOC(=O)CN=c1nc(-c2ccccc2)n(-c2ccc(OC)cc2)s1 [VP-1.62, 5-Ethoxycarbonylmethylimino-2-(4-methoxyphenyl)-3-phenyl-2,5-dihydro-1,2,4-thiadiazole hydrobromide] | – |
| 1500 | 13.7 ± 0.8 | CNS+ | Br.COc1ccc(-c2nc(=NCCO)sn2-c2ccccc2)cc1 [VP-1.40, 5-(2-Hydroxyethylimino)-3-(4-methoxyphenyl)-2-phenyl-2,5-dihydro-1,2,4-thiadiazole hydrobromide] | – |
| 810 | – | – | CCCCCN=c1nc(-c2ccc(OC)cc2)n(-c2ccccc2)s1 [3-(4-Methoxyphenyl)-5-pentylimino-2-phenyl-2,5-dihydro-1,2,4-thiadiazole hydrobromide] | – |
| 1180 | 13.7 ± 1 | CNS+ | Br.COc1ccc(-n2sc(=NCCO)nc2-c2ccccc2)cc1 [VP-1.61, 5-(2-Hydroxyethylimino)-2-(4-methoxyphenyl)-3-phenyl-2,5-dihydro-1,2,4-thiadiazole hydrobromide] | – |
| 890 | 3.8 ± 0.2 | CNS+/CNS− | Br.CCOC(=O)CN=c1nc(-c2ccc(OC)cc2)n(-c2ccccc2)s1 [VP-1.65, 5-Ethoxycarbonylmethylimino-3-(4-methoxyphenyl)-2-phenyl-2,5-dihydro-1,2,4-thiadiazole hydrobromide] | – |
| 380 | 10.7 ± 0.3 | CNS+ | Br.Br.c1ccc(-c2nc(=NCc3cccnc3)sn2-c2ccccc2)cc1 [VP-1.14, 2,3-Diphenyl-5-(3-pyridinylmethylimino)-2,5-dihydro-1,2,4-thiadiazole dihydrobromide] | – |
| 1440 | – | – | CCCCCN=c1nc(-c2ccccc2)n(-c2ccccc2)s1 [R1=Ph, R2=Ph, R3=n-Pent (hydrobromide), 5-Pentylimino-2,3-diphenyl-2,5-dihydro-1,2,4-thiadiazole hydrobromide] | – |
| 1110 | 15.4 ± 2 | CNS+ | Br.OCCN=c1nc(-c2ccccc2)n(-c2ccccc2)s1 [VP-1.15, 5-(2-Hydroxyethylimino)-2,3-diphenyl-2,5-dihydro-1,2,4-thiadiazole hydrobromide] | – |
| 1590 | – | – | c1ccc(-c2nc(=NCCN3CCOCC3)sn2-c2ccccc2)cc1 [5-(2-Morpholinethylimino)-2,3-diphenyl-2,5-dihydro-1,2,4-thiadiazole dihydrobromide] | – |
| 790 | – | – | CCOC(=O)CN=c1nc(-c2ccccc2)n(-c2ccc([N+](=O)[O-])cc2)s1 [5-Ethoxycarbonylmethylimino-2-(4-nitrophenyl)-3-phenyl-2,5-dihydro-1,2,4-thiadiazole hydrobromide] | – |

From patent publication US9604947B2, “Substituted 5-imino-1,2,4-thiadiazoles that can be used to treat neurodegenerative diseases” (CONSEJO SUPERIOR DE INVESTIGACIONES CIENTIFICAS (CSIC), priority 2009, dated 2017)
